From patent US20050175599A1, “Process for producing substance” (Kyowa Hakko Kogyo Co., Ltd., priority 2001, published 2005)

Assays:
[1] = system: transformant cell line 61-33γ (host YB2/0) producing a chimeric anti-GD3 antibody; experiment: Fed-batch culture of antibody-producing cells in Q10-containing medium (Example 2); assay type: cell-based, rat; conditions: Q10-added culture, 50 μmol/L Q10 dissolved in Tween 80, fed-batch culture 11 days
Procedure: The following fed-batch culture was performed with transformant cell line 61-33γ (FERM BP-7325) which was obtained by using hybridoma cell line YB2/0 derived from a rat myeloma cell line as a host cell and produces a chimeric anti-GD3 antibody.
In a T-225 cm^2 flask charged with 30 mL of a serum-free medium (Hybridoma-SFM; manufactured by Invitrogen Corporation), the cells were inoculated to a cell density of 3×10^5 cells/mL, followed by stationary culture in a 5%-CO2 incubator at 37° C. for 3 days.
On the completion of culturing, the resulting cells were inoculated in a 1-liter spinner flask (manufactured by Shibata Hario, Co., Ltd.) containing 0.7 liter of Hybridoma-SFM to 3×10^5 cells/ml. While adjusting the liquid culture to pH 7.1 ±0.1 and the dissolved oxygen concentration to 3±0.2 ppm, culturing was carried out at 37° C. for 11 days under the condition of stirring at 50 rpm. Aeration was carried out via a porous polytetrafluoroethylene tube arranged in the spinner flask, and a mixture gas of air, oxygen and carbon dioxide was supplied. Additionally, the pH was controlled by changing the ratio of air and carbon dioxide and by feeding 1 mol/L sodium carbonate solution. Furthermore, the dissolved oxygen concentration was controlled by changing the ratio of air and oxygen. […]

[2] = system: transformant cell line 61-33γ (host YB2/0) producing a chimeric anti-GD3 antibody; experiment: Batch culture of antibody-producing cells in Q10-containing serum-free medium (Example 1); assay type: cell-based, rat; conditions: Q10-added culture, 500 μM Q10 (added as SANOMIT), batch culture 6 days
Procedure: The following batch culture was performed with transformant cell line 61-33γ (FERM BP-7325, WO 01/29246) which was obtained by using hybridoma cell line YB2/0 derived from a rat myeloma cell line as a host cell and produces a chimeric anti-GD3 antibody. […]
From the start to the completion of culturing, the liquid culture was sampled once a day, to assay the viable cell density (cells/mL) and the antibody concentration (μg/mL) respectively. Further, the viable cell density was measured by a dye-exclusion method using 0.4% trypan blue solution.
The cumulative number of viable cells is shown as the total sum of the viable cell density multiplied by the time as elapsed. In the present Example, the viable cell density was measured once a day, and the cumulative number of viable cells was shown as value of the additive sum of the individual viable cell densities measured each time (cells/mL×days).
Additionally, the specific antibody production rate and the relative specific antibody production rate were calculated respectively by the following equations. […]

COC1=C(OC)C(=O)C(C/C=C(\C)CC/C=C(\C)CC/C=C(\C)CC/C=C(\C)CC/C=C(\C)CC/C=C(\C)CC/C=C(\C)CC/C=C(\C)CC/C=C(\C)CCC=C(C)C)=C(C)C1=O [Q10]
cumulative number of cells on the completion of culturing ([1]; Q10-free culture 2.97×10^7): 3.98×10^7 cells/ml×days | relative specific antibody production rate ([1]; Q10-free culture = 100%): 137.1% | cumulative number of cells on the completion of culturing ([2]; Q10-free culture 1.71×10^7): 1.51×10^7 cells/mL×days | relative specific antibody production rate ([2]; Q10-free culture = 100%): 166.3%
